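1) Cells in 96-well plates. 2) Compound, 48 h, 5 concentrations. 3) Linear interpolation between surrounding doses. 4) Unreached endpoint = highest concentration. TGI: concentration producing complete growth inhibition.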
How the values were obtained:
Assay in all cases: NCI anticancer screen, dose series, 48 h
A498 renal = tested on: A498 renal
A549 NSCLC = tested on: A549 NSCLC
ACHN renal = tested on: ACHN renal
CAKI-1 renal = tested on: CAKI-1 renal
CCRF-CEM leukemia = tested on: CCRF-CEM leukemia
COLO 205 colon = tested on: COLO 205 colon
DLD-1 colon = tested on: DLD-1 colon
DMS 114 small cell lung = tested on: DMS 114 small cell lung
DMS 273 small cell lung = tested on: DMS 273 small cell lung
EKVX NSCLC = tested on: EKVX NSCLC
HCC-2998 colon = tested on: HCC-2998 colon
HCT-116 colon = tested on: HCT-116 colon
HCT-15 colon = tested on: HCT-15 colon
HL-60(TB) leukemia = tested on: HL-60(TB) leukemia
HOP-18 NSCLC = tested on: HOP-18 NSCLC
HOP-62 NSCLC = tested on: HOP-62 NSCLC
HOP-92 NSCLC = tested on: HOP-92 NSCLC
HT29 colon = tested on: HT29 colon
IGROV1 ovarian = tested on: IGROV1 ovarian
K-562 leukemia = tested on: K-562 leukemia
KM12 colon = tested on: KM12 colon
KM20L2 colon = tested on: KM20L2 colon
M14 melanoma = tested on: M14 melanoma
M19-MEL melanoma = tested on: M19-MEL melanoma
MALME-3M melanoma = tested on: MALME-3M melanoma
MOLT-4 leukemia = tested on: MOLT-4 leukemia
NCI-H226 lung = tested on: NCI-H226 lung
NCI-H23 lung = tested on: NCI-H23 lung
NCI-H522 lung = tested on: NCI-H522 lung
OVCAR-3 ovarian = tested on: OVCAR-3 ovarian
OVCAR-4 ovarian = tested on: OVCAR-4 ovarian
OVCAR-5 ovarian = tested on: OVCAR-5 ovarian
OVCAR-8 ovarian = tested on: OVCAR-8 ovarian
RXF-631 renal = tested on: RXF-631 renal
SF-268 CNS = tested on: SF-268 CNS
SF-295 CNS = tested on: SF-295 CNS
SF-539 CNS = tested on: SF-539 CNS
SK-MEL-2 melanoma = tested on: SK-MEL-2 melanoma
SK-MEL-28 melanoma = tested on: SK-MEL-28 melanoma
SK-MEL-5 melanoma = tested on: SK-MEL-5 melanoma
SK-OV-3 ovarian = tested on: SK-OV-3 ovarian
SN12C renal = tested on: SN12C renal
SNB-75 CNS = tested on: SNB-75 CNS
SNB-78 CNS = tested on: SNB-78 CNS
SR leukemia = tested on: SR leukemia
SW-620 colon = tested on: SW-620 colon
TK-10 renal = tested on: TK-10 renal
U251 CNS = tested on: U251 CNS
UACC-257 melanoma = tested on: UACC-257 melanoma
UACC-62 melanoma = tested on: UACC-62 melanoma
UO-31 renal = tested on: UO-31 renal
786-0 renal = tested on: 786-0 renal
LOX IMVI melanoma = tested on: LOX IMVI melanoma
LXFL 529 NSCLC = tested on: LXFL 529 NSCLC
NCI-H460 lung = tested on: NCI-H460 lung
RPMI-8226 leukemia = tested on: RPMI-8226 leukemia
RXF 393 renal = tested on: RXF 393 renal
SNB-19 CNS = tested on: SNB-19 CNS
XF 498 CNS = tested on: XF 498 CNS

Compound: O=P(Nc1ccccc1)(Oc1ccccc1)N(CCCl)CCCl (configuration not stated)
- TGI (A498 renal): > 100 µM
- TGI (A549 NSCLC): > 100 µM
- TGI (ACHN renal): > 100 µM
- TGI (CAKI-1 renal): > 100 µM
- TGI (CCRF-CEM leukemia): > 100 µM
- TGI (COLO 205 colon): > 100 µM
- TGI (DLD-1 colon): > 100 µM
- TGI (DMS 114 small cell lung): > 100 µM
- TGI (DMS 273 small cell lung): > 100 µM
- TGI (EKVX NSCLC): > 100 µM
- TGI (HCC-2998 colon): > 100 µM
- TGI (HCT-116 colon): > 100 µM
- TGI (HCT-15 colon): > 100 µM
- TGI (HL-60(TB) leukemia): > 100 µM
- TGI (HOP-18 NSCLC): > 100 µM
- TGI (HOP-62 NSCLC): > 100 µM
- TGI (HOP-92 NSCLC): > 100 µM
- TGI (HT29 colon): > 100 µM
- TGI (IGROV1 ovarian): > 100 µM
- TGI (K-562 leukemia): > 100 µM
- TGI (KM12 colon): > 100 µM
- TGI (KM20L2 colon): > 100 µM
- TGI (M14 melanoma): > 100 µM
- TGI (M19-MEL melanoma): > 100 µM
- TGI (MALME-3M melanoma): > 100 µM
- TGI (MOLT-4 leukemia): > 100 µM
- TGI (NCI-H226 lung): > 100 µM
- TGI (NCI-H23 lung): > 100 µM
- TGI (NCI-H522 lung): 28.8 µM
- TGI (OVCAR-3 ovarian): > 100 µM
- TGI (OVCAR-4 ovarian): > 100 µM
- TGI (OVCAR-5 ovarian): > 100 µM
- TGI (OVCAR-8 ovarian): > 100 µM
- TGI (RXF-631 renal): > 100 µM
- TGI (SF-268 CNS): > 100 µM
- TGI (SF-295 CNS): > 100 µM
- TGI (SF-539 CNS): > 100 µM
- TGI (SK-MEL-2 melanoma): > 100 µM
- TGI (SK-MEL-28 melanoma): > 100 µM
- TGI (SK-MEL-5 melanoma): > 100 µM
- TGI (SK-OV-3 ovarian): 44.2 µM
- TGI (SN12C renal): > 100 µM
- TGI (SNB-75 CNS): > 100 µM
- TGI (SNB-78 CNS): > 100 µM
- TGI (SR leukemia): > 100 µM
- TGI (SW-620 colon): > 100 µM
- TGI (TK-10 renal): > 100 µM
- TGI (U251 CNS): > 100 µM
- TGI (UACC-257 melanoma): > 100 µM
- TGI (UACC-62 melanoma): > 100 µM
- TGI (UO-31 renal): 28.2 µM

Compound: COC(=O)/C(C#N)=C(\N)C(Cl)(Cl)Cl
- TGI (786-0 renal): 14.4 µM
- TGI (A498 renal): 8.22 µM
- TGI (A549 NSCLC): 12.7 µM
- TGI (ACHN renal): 6.6 µM
- TGI (CAKI-1 renal): 17.5 µM
- TGI (CCRF-CEM leukemia): 2.67 µM
- TGI (COLO 205 colon): 4.72 µM
- TGI (DLD-1 colon): 3.52 µM
- TGI (DMS 114 small cell lung): 11.1 µM
- TGI (DMS 273 small cell lung): 12.4 µM
- TGI (EKVX NSCLC): 17.8 µM
- TGI (HCC-2998 colon): 9.41 µM
- TGI (HCT-116 colon): 2.25 µM
- TGI (HCT-15 colon): 8.43 µM
- TGI (HL-60(TB) leukemia): 1.32 µM
- TGI (HOP-62 NSCLC): 39 µM
- TGI (HOP-92 NSCLC): 9.85 µM
- TGI (K-562 leukemia): 4.51 µM
- TGI (KM12 colon): 15.8 µM
- TGI (KM20L2 colon): > 100 µM
- TGI (LOX IMVI melanoma): 10.8 µM
- TGI (LXFL 529 NSCLC): 9.73 µM
- TGI (M14 melanoma): 3.31 µM
- TGI (M19-MEL melanoma): 6.35 µM
- TGI (MOLT-4 leukemia): 3.2 µM
- TGI (NCI-H460 lung): 16.1 µM
- TGI (NCI-H522 lung): 4.14 µM
- TGI (OVCAR-3 ovarian): 12.9 µM
- TGI (OVCAR-4 ovarian): 8.56 µM
- TGI (OVCAR-8 ovarian): 4.68 µM
- TGI (RPMI-8226 leukemia): 6.75 µM
- TGI (RXF 393 renal): 3.77 µM
- TGI (RXF-631 renal): 6.02 µM
- TGI (SF-268 CNS): 14.7 µM
- TGI (SF-295 CNS): 19.4 µM
- TGI (SK-MEL-2 melanoma): 87.2 µM
- TGI (SK-MEL-28 melanoma): 4.66 µM
- TGI (SK-MEL-5 melanoma): 3.82 µM
- TGI (SK-OV-3 ovarian): 5.3 µM
- TGI (SN12C renal): 12.7 µM
- TGI (SNB-19 CNS): > 100 µM
- TGI (SNB-75 CNS): 16 µM
- TGI (SNB-78 CNS): 31.3 µM
- TGI (SR leukemia): 5.37 µM
- TGI (SW-620 colon): 1.84 µM
- TGI (TK-10 renal): 7.55 µM
- TGI (U251 CNS): 31.7 µM
- TGI (UACC-257 melanoma): 12.6 µM
- TGI (UACC-62 melanoma): 2.86 µM
- TGI (UO-31 renal): 86.6 µM
- TGI (XF 498 CNS): 4.36 µM

Reference: PubChem BioAssay (NCI)
